In US20210255193A1, “LYSINE REACTIVE PROBES AND USES THEREOF” (The Scripps Research Institute, priority 2017, published 2021):

What was measured:
Assay in all cases: competitive isoTOP-ABPP
Format in all cases: binding
[1] = molecular target: T1, AP1G1 AP-1 complex subunit gamma-1 (Homo sapiens, UniProt O43747); conditions: 50 uM, in vitro; for R value (DMSO/fragment) for probe 1 labeling: O43747_K214; for R value (DMSO/fragment) for probe 1 labeling / isoTOP-ABPP reactivity ratio at lysine O43747_K214: 231 sol; for isoTOP-ABPP ratio (R) at liganded lysine O43747_K214: sol, 231
T1 construct: isoTOP-ABPP experiments performed in cell lysates (in vitro); endogenous in cells; host or cells: MDA-MB-231 soluble lysate
T1 sequence (O43747 1-822): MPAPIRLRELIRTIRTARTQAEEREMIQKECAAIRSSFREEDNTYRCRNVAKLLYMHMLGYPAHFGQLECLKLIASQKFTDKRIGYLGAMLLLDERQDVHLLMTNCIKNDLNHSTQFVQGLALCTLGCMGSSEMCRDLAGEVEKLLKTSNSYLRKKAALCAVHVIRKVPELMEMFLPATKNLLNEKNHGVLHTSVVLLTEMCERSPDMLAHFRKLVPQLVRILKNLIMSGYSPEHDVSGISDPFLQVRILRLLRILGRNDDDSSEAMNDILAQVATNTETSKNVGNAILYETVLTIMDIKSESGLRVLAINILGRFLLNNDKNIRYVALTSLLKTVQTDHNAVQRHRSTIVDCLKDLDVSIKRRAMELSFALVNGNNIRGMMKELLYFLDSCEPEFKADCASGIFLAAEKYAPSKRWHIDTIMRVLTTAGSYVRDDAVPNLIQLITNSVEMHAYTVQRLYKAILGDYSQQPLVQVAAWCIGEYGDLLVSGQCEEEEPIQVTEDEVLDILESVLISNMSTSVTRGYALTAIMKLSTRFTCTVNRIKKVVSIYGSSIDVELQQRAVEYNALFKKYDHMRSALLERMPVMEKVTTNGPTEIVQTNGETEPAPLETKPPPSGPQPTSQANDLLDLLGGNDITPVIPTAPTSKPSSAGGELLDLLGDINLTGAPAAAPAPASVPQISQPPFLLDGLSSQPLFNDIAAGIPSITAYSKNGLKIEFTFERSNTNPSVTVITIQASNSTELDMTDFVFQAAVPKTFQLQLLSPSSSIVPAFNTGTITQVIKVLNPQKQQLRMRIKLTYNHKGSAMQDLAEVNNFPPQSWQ
Procedure, shortened: (§1)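 Cell lysate treated in vitro with fragments (50 μM activated esters, 100 μM guanidinylating agents) or DMSO, labelled 1 h at ambient temperature with 0.1 mM STP-alkyne, CuAAC-tagged with light/heavy TEV tags, analysed by MS. R = DMSO/compound MS1 peak-area ratio; lysines with R≥4 called liganded.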

OLA1 Obg-like ATPase 1 = molecular target: T2, OLA1 Obg-like ATPase 1 (Homo sapiens, UniProt Q9NTK5); conditions: 50 uM, in vitro; for R value (DMSO/fragment) for probe 1 labeling: Q9NTK5_K248; for R value (DMSO/fragment) for probe 1 labeling / isoTOP-ABPP reactivity ratio at lysine Q9NTK5_K248: 231 sol; for isoTOP-ABPP ratio (R) at liganded lysine Q9NTK5_K248: sol, 231
T2 construct: endogenous in cells; host or cells: MDA-MB-231 (soluble fraction of lysate)
Procedure, shortened: as §1

[2] = molecular target: T3, ERAP1 Endoplasmic reticulum aminopeptidase 1 (Homo sapiens, UniProt Q9NZ08); conditions: 50 uM, in vitro; for R value (DMSO/fragment) for probe 1 labeling: Q9NZ08_K685; for R value (DMSO/fragment) for probe 1 labeling / isoTOP-ABPP reactivity ratio at lysine Q9NZ08_K685: 231 sol; for isoTOP-ABPP ratio (R) at liganded lysine Q9NZ08_K685: sol, 231
T3 construct: endogenous in cells; host or cells: MDA-MB-231 lysate
Procedure, shortened: as §1

[3] = molecular target: T4, UCHL5 Ubiquitin carboxyl-terminal hydrolase isozyme L5 (Homo sapiens, UniProt Q9Y5K5); conditions: 50 uM, in vitro; for R value (DMSO/fragment) for probe 1 labeling: Q9Y5K5_K323; for R value (DMSO/fragment) for probe 1 labeling / isoTOP-ABPP reactivity ratio at lysine Q9Y5K5_K323: 231 sol; for isoTOP-ABPP ratio (R) at liganded lysine Q9Y5K5_K323: sol, 231
T4 construct: endogenous in cells; host or cells: MDA-MB-231 (soluble fraction of lysate)
T4 sequence (Q9Y5K5 1-329): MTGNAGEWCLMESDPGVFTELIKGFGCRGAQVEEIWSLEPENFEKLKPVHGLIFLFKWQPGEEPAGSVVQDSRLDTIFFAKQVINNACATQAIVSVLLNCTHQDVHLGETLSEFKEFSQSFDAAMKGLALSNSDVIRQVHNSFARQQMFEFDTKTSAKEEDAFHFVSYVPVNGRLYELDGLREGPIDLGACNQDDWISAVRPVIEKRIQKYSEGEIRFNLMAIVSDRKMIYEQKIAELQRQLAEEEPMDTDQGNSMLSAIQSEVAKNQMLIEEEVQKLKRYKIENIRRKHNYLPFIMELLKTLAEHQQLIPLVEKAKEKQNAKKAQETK
Procedure, shortened: as §1

T3 sequence (Q9NZ08 whole entry, the tested form may be a part): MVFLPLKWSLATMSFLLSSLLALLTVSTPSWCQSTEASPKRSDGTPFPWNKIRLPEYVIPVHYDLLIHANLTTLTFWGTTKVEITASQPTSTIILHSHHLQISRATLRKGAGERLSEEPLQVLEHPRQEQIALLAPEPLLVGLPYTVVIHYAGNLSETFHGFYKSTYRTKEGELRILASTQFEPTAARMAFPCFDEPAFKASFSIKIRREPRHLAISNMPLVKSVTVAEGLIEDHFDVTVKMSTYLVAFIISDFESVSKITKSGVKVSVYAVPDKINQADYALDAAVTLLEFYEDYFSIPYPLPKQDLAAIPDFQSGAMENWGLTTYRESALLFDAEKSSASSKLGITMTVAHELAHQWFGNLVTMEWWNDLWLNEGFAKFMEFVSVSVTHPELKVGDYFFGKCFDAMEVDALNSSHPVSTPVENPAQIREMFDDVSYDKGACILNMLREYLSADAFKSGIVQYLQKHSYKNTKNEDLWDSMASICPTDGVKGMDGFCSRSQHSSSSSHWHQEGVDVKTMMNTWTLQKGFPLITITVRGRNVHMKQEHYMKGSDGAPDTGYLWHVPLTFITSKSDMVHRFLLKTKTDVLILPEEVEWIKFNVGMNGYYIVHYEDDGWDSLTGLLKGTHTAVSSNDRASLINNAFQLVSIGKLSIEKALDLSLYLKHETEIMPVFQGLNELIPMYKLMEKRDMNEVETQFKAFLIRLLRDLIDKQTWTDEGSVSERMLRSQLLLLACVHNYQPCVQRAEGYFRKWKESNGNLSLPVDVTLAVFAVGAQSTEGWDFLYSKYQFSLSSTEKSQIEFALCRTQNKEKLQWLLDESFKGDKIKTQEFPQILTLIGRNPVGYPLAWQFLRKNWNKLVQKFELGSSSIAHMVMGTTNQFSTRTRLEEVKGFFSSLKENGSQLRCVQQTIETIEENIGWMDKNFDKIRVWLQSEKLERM

SMILES	isoTOP-ABPP reactivity ratio at lysine O43747_K214 [1]	isoTOP-ABPP reactivity ratio at lysine Q9NTK5_K248 (OLA1 Obg-like ATPase 1)	isoTOP-ABPP reactivity ratio at lysine Q9NZ08_K685 [2]	isoTOP-ABPP reactivity ratio at lysine Q9Y5K5_K323 [3]	other results
O=C(CCc1cn(-c2ccccc2)nc1-c1ccccc1)Oc1c(F)c(F)c(F)c(F)c1F [fragment 19, Pentafluorophenyl 3-(1,3-diphenyl-1H-pyrazol-4-yl)propanoate]					R value (DMSO/fragment) for probe 1 labeling [1]: 1.0; R value (DMSO/fragment) for probe 1 labeling (OLA1 Obg-like ATPase 1): 1.0; R value (DMSO/fragment) for probe 1 labeling [2]: 1.1; R value (DMSO/fragment) for probe 1 labeling [3]: 1.1
O=C(Oc1c(F)c(F)c(F)c(F)c1F)C(c1ccccc1)c1ccccc1 [fragment 20, Pentafluorophenyl 2,2-diphenylacetate]					R value (DMSO/fragment) for probe 1 labeling [1]: 0.9; R value (DMSO/fragment) for probe 1 labeling (OLA1 Obg-like ATPase 1): 0.9; R value (DMSO/fragment) for probe 1 labeling [2]: 1.5; R value (DMSO/fragment) for probe 1 labeling [3]: 0.9
O=C(Oc1c(F)c(F)c(F)c(F)c1F)c1cc(C(F)(F)F)cc(C(F)(F)F)c1 [fragment 21, Pentafluorophenyl 3,5-bis(trifluoromethyl)benzoate]					R value (DMSO/fragment) for probe 1 labeling [1]: 0.9; R value (DMSO/fragment) for probe 1 labeling (OLA1 Obg-like ATPase 1): 1.0; R value (DMSO/fragment) for probe 1 labeling [2]: 1.4; R value (DMSO/fragment) for probe 1 labeling [3]: 1.0
Cn1cc(CC(=O)Oc2c(F)c(F)c(F)c(F)c2F)c2ccccc21 [fragment 22, Pentafluorophenyl 2-(1-methyl-1H-indol-3-yl)acetate]					R value (DMSO/fragment) for probe 1 labeling [1]: 1.1; R value (DMSO/fragment) for probe 1 labeling (OLA1 Obg-like ATPase 1): 1.0; R value (DMSO/fragment) for probe 1 labeling [2]: 2.2; R value (DMSO/fragment) for probe 1 labeling [3]: 0.8
COc1cc(CCC(=O)Oc2c(F)c(F)c(F)c(F)c2F)cc(OC)c1OC [fragment 23, Pentafluorophenyl 3-(3,4,5-trimethoxyphenyl)propanoate]					R value (DMSO/fragment) for probe 1 labeling [1]: 1.1; R value (DMSO/fragment) for probe 1 labeling (OLA1 Obg-like ATPase 1): 1.0; R value (DMSO/fragment) for probe 1 labeling [2]: 1.7
O=C(Oc1c(F)c(F)c(F)c(F)c1F)C1CCN(C(=O)OCc2ccccc2)CC1 [fragment 24, 1-Benzyl 4-(pentafluorophenyl) piperidine-1,4-dicarboxylate]	1.0	1.1	1.6	0.8	
O=C(Oc1c(F)c(F)c(F)c(F)c1F)c1ccc2ccccc2n1 [fragment 25, Pentafluorophenyl quinoline-2-carboxylate]	1.0	1.0	1.9		
O=C(CCc1coc2cc(F)ccc2c1=O)Oc1c(F)c(F)c(F)c(F)c1F [fragment 26, Pentafluorophenyl 3-(7-fluoro-4-oxo-4H-chromen-3-yl)propanoate]	1.1	1.0	1.2	1.1	
O=C(CN1C(=O)c2ccccc2C1=O)Oc1c(F)c(F)c(F)c(F)c1F [fragment 27, Pentafluorophenyl 2-(1,3-dioxoisoindolin-2-yl)acetate]	0.9	1.1	5.7	1.1	
CCn1cc(C(=O)Oc2c(F)c(F)c(F)c(F)c2F)c(=O)c2ccc(C)nc21 [fragment 28, Pentafluorophenyl 1-ethyl-7-methyl-4-oxo-1,4-dihydro-1,8-naphthyridine-3-carboxylate]	1.0	1.0	1.4	1.2	
O=C(CCc1cn(-c2ccccc2)nc1-c1ccccc1)Oc1ccc([N+](=O)[O-])cc1[N+](=O)[O-] [fragment 29, 2,4-Dinitrophenyl 3-(1,3-diphenyl-1H-pyrazol-4-yl)propanoate]	1.0	0.9	1.0	1.1	
O=C(Oc1ccc([N+](=O)[O-])cc1[N+](=O)[O-])C(c1ccccc1)c1ccccc1 [fragment 30, 2,4-Dinitrophenyl 2,2-diphenylacetate]	1.1	1.0	1.2	1.1	
O=C(Oc1ccc([N+](=O)[O-])cc1[N+](=O)[O-])c1cc(C(F)(F)F)cc(C(F)(F)F)c1 [fragment 31, 2,4-Dinitrophenyl 3,5-bis(trifluoromethyl)benzoate]	0.9	1.0	1.6	1.0	
Cn1cc(CC(=O)Oc2ccc([N+](=O)[O-])cc2[N+](=O)[O-])c2ccccc21 [fragment 32, 2,4-Dinitrophenyl 2-(1-methyl-1H-indol-3-yl)acetate]	6.6	1.0	2.8	1.0	
COc1cc(CCC(=O)Oc2ccc([N+](=O)[O-])cc2[N+](=O)[O-])cc(OC)c1OC [fragment 33, 2,4-Dinitrophenyl 3-(3,4,5-trimethoxyphenyl)propanoate]	1.7	1.0	1.0	0.8	
O=C(Oc1ccc([N+](=O)[O-])cc1[N+](=O)[O-])C1CCN(C(=O)OCc2ccccc2)CC1 [fragment 34, 1-Benzyl 4-(2,4-dinitrophenyl) piperidine-1,4-dicarboxylate]					isoTOP-ABPP ratio (R) at liganded lysine O43747_K214 [1]: 1.7; isoTOP-ABPP ratio (R) at liganded lysine Q9NTK5_K248 (OLA1 Obg-like ATPase 1): 0.9; isoTOP-ABPP ratio (R) at liganded lysine Q9NZ08_K685 [2]: 1.7; isoTOP-ABPP ratio (R) at liganded lysine Q9Y5K5_K323 [3]: 0.9
O=C(Oc1ccc([N+](=O)[O-])cc1[N+](=O)[O-])c1ccc2ccccc2n1 [fragment 35, 2,4-Dinitrophenyl quinoline-2-carboxylate]					isoTOP-ABPP ratio (R) at liganded lysine O43747_K214 [1]: 1.0; isoTOP-ABPP ratio (R) at liganded lysine Q9NTK5_K248 (OLA1 Obg-like ATPase 1): 1.0; isoTOP-ABPP ratio (R) at liganded lysine Q9Y5K5_K323 [3]: 1.0
O=C(CCc1coc2cc(F)ccc2c1=O)Oc1ccc([N+](=O)[O-])cc1[N+](=O)[O-] [fragment 36, 2,4-Dinitrophenyl 3-(7-fluoro-4-oxo-4H-chromen-3-yl)propanoate]					isoTOP-ABPP ratio (R) at liganded lysine O43747_K214 [1]: 1.1; isoTOP-ABPP ratio (R) at liganded lysine Q9NTK5_K248 (OLA1 Obg-like ATPase 1): 0.8; isoTOP-ABPP ratio (R) at liganded lysine Q9NZ08_K685 [2]: 1.1; isoTOP-ABPP ratio (R) at liganded lysine Q9Y5K5_K323 [3]: 0.8
O=C(Oc1ccc([N+](=O)[O-])cc1[N+](=O)[O-])c1ccc(-c2ccccc2)cc1 [fragment 37, 2,4-Dinitrophenyl [1,1′-biphenyl]-4-carboxylate]					isoTOP-ABPP ratio (R) at liganded lysine O43747_K214 [1]: 0.9; isoTOP-ABPP ratio (R) at liganded lysine Q9NTK5_K248 (OLA1 Obg-like ATPase 1): 0.9; isoTOP-ABPP ratio (R) at liganded lysine Q9NZ08_K685 [2]: 1.0; isoTOP-ABPP ratio (R) at liganded lysine Q9Y5K5_K323 [3]: 0.9
O=C(CC12CC3CC(CC(C3)C1)C2)Oc1ccc([N+](=O)[O-])cc1[N+](=O)[O-] [fragment 38, 2,4-Dinitrophenyl 2-(adamantan-1-yl)acetate]					isoTOP-ABPP ratio (R) at liganded lysine O43747_K214 [1]: 0.9; isoTOP-ABPP ratio (R) at liganded lysine Q9NTK5_K248 (OLA1 Obg-like ATPase 1): 0.9; isoTOP-ABPP ratio (R) at liganded lysine Q9NZ08_K685 [2]: 1.0; isoTOP-ABPP ratio (R) at liganded lysine Q9Y5K5_K323 [3]: 0.9
